Earlier results, collected in publication PMC11195919 (Journal of pharmacy & pharmaceutical sciences : a …, 2021).

Tests used:
OATP1B3 = details: read-out: Km of CCK-8 transport by OATP1B3

- Km (OATP1B3): 3.82 µM
- linear range of initial uptake of CCK-8 (primary rat hepatocyte; non-transduced rat hepatocytes): at least 1 min
- Km (primary rat hepatocyte; read-out: Km of CCK-8 uptake in primary rat hepatocyte): 6.7 µM
Substance: cholecystokinin octapeptide [CCK-8]
